PubChem BioAssay AID1963832 (Molecular Pharmacology Branch, DTP, NCI, 2024)

Tested on: 885724-159-R-J1-PDC complex spheroid viability
Test: Anticancer human tumor 885724-159-R-J1-PDC patient-derived pancreatic adenocarcinoma cell line growth inhibition [POLQ]
Settings: for IC50: curve of first compound; for viability, T/C: stronger effect = lower value
Procedure, shortened: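 Growth inhibition in 3D: complex spheroids (tumor PDC, HUVEC, MSC) treated with POLQ inhibitor combinations; where Cmax unknown, highest tested concentration 10 microM, except SN-38 at 1 microM.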

[1] = second compound 0.0316 µM, first compound 0.00316 µM
[2] = second compound 0.0316 µM, first compound 0.01 µM
[3] = second compound 0.0316 µM, first compound 0.0316 µM
[4] = second compound 0.0316 µM, first compound 0.1 µM
[5] = second compound 0.0316 µM, first compound 0.316 µM
[6] = second compound 0.0316 µM, first compound 1 µM
[7] = second compound 0.1 µM, first compound 0.00316 µM
[8] = second compound 0.1 µM, first compound 0.01 µM
[9] = second compound 0.1 µM, first compound 0.0316 µM
[10] = second compound 0.1 µM, first compound 0.1 µM
[11] = second compound 0.1 µM, first compound 0.316 µM
[12] = second compound 0.1 µM, first compound 1 µM
[13] = second compound 0.316 µM, first compound 0.00316 µM
[14] = second compound 0.316 µM, first compound 0.01 µM
[15] = second compound 0.316 µM, first compound 0.0316 µM
[16] = second compound 0.316 µM, first compound 0.1 µM
[17] = second compound 0.316 µM, first compound 0.316 µM
[18] = second compound 0.316 µM, first compound 1 µM
[19] = second compound 1 µM, first compound 0.00316 µM
[20] = second compound 1 µM, first compound 0.01 µM
[21] = second compound 1 µM, first compound 0.0316 µM
[22] = second compound 1 µM, first compound 0.1 µM
[23] = second compound 1 µM, first compound 0.316 µM
[24] = second compound 1 µM, first compound 1 µM
[25] = second compound 3.16 µM, first compound 0.00316 µM
[26] = second compound 3.16 µM, first compound 0.01 µM
[27] = second compound 3.16 µM, first compound 0.0316 µM
[28] = second compound 3.16 µM, first compound 0.1 µM
[29] = second compound 3.16 µM, first compound 0.316 µM
[30] = second compound 3.16 µM, first compound 1 µM
[31] = second compound 10 µM, first compound 0.00316 µM
[32] = second compound 10 µM, first compound 0.01 µM
[33] = second compound 10 µM, first compound 0.0316 µM
[34] = second compound 10 µM, first compound 0.1 µM
[35] = second compound 10 µM, first compound 0.316 µM
[36] = second compound 10 µM, first compound 1 µM
[37] = second compound 0.0316 µM, first compound 3.16 µM
[38] = second compound 0.0316 µM, first compound 10 µM
[39] = second compound 0.1 µM, first compound 3.16 µM
[40] = second compound 0.1 µM, first compound 10 µM
[41] = second compound 0.316 µM, first compound 3.16 µM
[42] = second compound 0.316 µM, first compound 10 µM
[43] = second compound 1 µM, first compound 3.16 µM
[44] = second compound 1 µM, first compound 10 µM
[45] = second compound 3.16 µM, first compound 3.16 µM
[46] = second compound 3.16 µM, first compound 10 µM
[47] = second compound 10 µM, first compound 3.16 µM
[48] = second compound 10 µM, first compound 10 µM
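Note: spheroids exposed to compounds for 7 days.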

SMILES: C=CCn1c(=O)c2cnc(Nc3ccc(N4CCN(C)CC4)cc3)nc2n1-c1cccc(C(C)(C)O)n1 + Nc1ccc(C#CCN(C(=O)Cc2ncc(C(F)(F)F)cc2C(F)(F)F)c2ccc(F)cc2)nn1
- IC50 (second compound 0.0316 µM): 762 nM
- IC50 (second compound 0.1 µM): 667 nM
- IC50 (second compound 0.316 µM): 630 nM
- IC50 (second compound 1 µM): > 1000 nM
- IC50 (second compound 3.16 µM): 779 nM
- IC50 (second compound 10 µM): 880 nM
- viability, T/C [1]: 96.6%
- viability, T/C [2]: 96%
- viability, T/C [3]: 79.6%
- viability, T/C [4]: 67.8%
- viability, T/C [5]: 57.4%
- viability, T/C [6]: 47.3%
- viability, T/C [7]: 106%
- viability, T/C [8]: 95.1%
- viability, T/C [9]: 86.5%
- viability, T/C [10]: 73.8%
- viability, T/C [11]: 57.1%
- viability, T/C [12]: 45.8%
- viability, T/C [13]: 94.9%
- viability, T/C [14]: 92.2%
- viability, T/C [15]: 89.8%
- viability, T/C [16]: 73.9%
- viability, T/C [17]: 56.2%
- viability, T/C [18]: 46%
- viability, T/C [19]: 102%
- viability, T/C [20]: 92.6%
- viability, T/C [21]: 91.3%
- viability, T/C [22]: 76%
- viability, T/C [23]: 58.1%
- viability, T/C [24]: 53.3%
- viability, T/C [25]: 96.3%
- viability, T/C [26]: 101%
- viability, T/C [27]: 88.2%
- viability, T/C [28]: 73.9%
- viability, T/C [29]: 56%
- viability, T/C [30]: 48.3%
- viability, T/C [31]: 116%
- viability, T/C [32]: 98.2%
- viability, T/C [33]: 98.5%
- viability, T/C [34]: 81.4%
- viability, T/C [35]: 63.7%
- viability, T/C [36]: 48.2%

SMILES: CCc1c2c(nc3ccc(O)cc13)-c1cc3c(c(=O)n1C2)COC(=O)[C@]3(O)CC + Nc1ccc(C#CCN(C(=O)Cc2ncc(C(F)(F)F)cc2C(F)(F)F)c2ccc(F)cc2)nn1
- IC50 (second compound 0.0316 µM): 91.9 nM
- IC50 (second compound 0.1 µM): 55.9 nM
- IC50 (second compound 0.316 µM): 45.8 nM
- IC50 (second compound 1 µM): 81.8 nM
- IC50 (second compound 3.16 µM): 59 nM
- IC50 (second compound 10 µM): 120 nM
- viability, T/C [1]: 73.5%
- viability, T/C [2]: 60.1%
- viability, T/C [3]: 58%
- viability, T/C [4]: 51.4%
- viability, T/C [5]: 33.5%
- viability, T/C [6]: 5.95%
- viability, T/C [7]: 82.2%
- viability, T/C [8]: 63.5%
- viability, T/C [9]: 52.3%
- viability, T/C [10]: 48.1%
- viability, T/C [11]: 33.2%
- viability, T/C [12]: 6.65%
- viability, T/C [13]: 83.1%
- viability, T/C [14]: 63.6%
- viability, T/C [15]: 48.1%
- viability, T/C [16]: 46.1%
- viability, T/C [17]: 32.7%
- viability, T/C [18]: 6.56%
- viability, T/C [19]: 76.3%
- viability, T/C [20]: 63%
- viability, T/C [21]: 49%
- viability, T/C [22]: 51.4%
- viability, T/C [23]: 37.7%
- viability, T/C [24]: 5.34%
- viability, T/C [25]: 78.8%
- viability, T/C [26]: 65.1%
- viability, T/C [27]: 51.4%
- viability, T/C [28]: 47.2%
- viability, T/C [29]: 34.6%
- viability, T/C [30]: 5.06%
- viability, T/C [31]: 72.8%
- viability, T/C [32]: 58.6%
- viability, T/C [33]: 53.6%
- viability, T/C [34]: 55.1%
- viability, T/C [35]: 39.3%
- viability, T/C [36]: 5.13%

SMILES: Nc1ccn(C2OC(CO)C(O)C2(F)F)c(=O)n1 (stereo not drawn) + Nc1ccc(C#CCN(C(=O)Cc2ncc(C(F)(F)F)cc2C(F)(F)F)c2ccc(F)cc2)nn1
- IC50 (second compound 0.0316 µM): 1040 nM
- IC50 (second compound 0.1 µM): 1880 nM
- IC50 (second compound 0.316 µM): 2270 nM
- IC50 (second compound 1 µM): 886 nM
- IC50 (second compound 3.16 µM): > 10000 nM
- IC50 (second compound 10 µM): > 10000 nM
- viability, T/C [3]: 65.5%
- viability, T/C [4]: 57.2%
- viability, T/C [5]: 47%
- viability, T/C [6]: 55.1%
- viability, T/C [37]: 54.8%
- viability, T/C [38]: 42.1%
- viability, T/C [9]: 70.2%
- viability, T/C [10]: 60.2%
- viability, T/C [11]: 54.3%
- viability, T/C [12]: 55.2%
- viability, T/C [39]: 49.6%
- viability, T/C [40]: 44.2%
- viability, T/C [15]: 72%
- viability, T/C [16]: 62.9%
- viability, T/C [17]: 56.5%
- viability, T/C [18]: 53.2%
- viability, T/C [41]: 49.1%
- viability, T/C [42]: 46.3%
- viability, T/C [21]: 72.4%
- viability, T/C [22]: 55.4%
- viability, T/C [23]: 54.2%
- viability, T/C [24]: 51.2%
- viability, T/C [43]: 49%
- viability, T/C [44]: 47.1%
- viability, T/C [27]: 77.5%
- viability, T/C [28]: 60.9%
- viability, T/C [29]: 55.7%
- viability, T/C [30]: 50.8%
- viability, T/C [45]: 55.8%
- viability, T/C [46]: 46.4%
- viability, T/C [33]: 96%
- viability, T/C [34]: 72%
- viability, T/C [35]: 69.3%
- viability, T/C [36]: 59.2%
- viability, T/C [47]: 54.9%
- viability, T/C [48]: 55.2%

SMILES: O=C(c1cc(Cc2n[nH]c(=O)c3ccccc23)ccc1F)N1CCN(C(=O)C2CC2)CC1 + Nc1ccc(C#CCN(C(=O)Cc2ncc(C(F)(F)F)cc2C(F)(F)F)c2ccc(F)cc2)nn1
- IC50 (second compound 0.0316 µM): > 10000 nM
- IC50 (second compound 0.1 µM): > 10000 nM
- IC50 (second compound 0.316 µM): > 10000 nM
- IC50 (second compound 1 µM): > 10000 nM
- IC50 (second compound 3.16 µM): > 10000 nM
- IC50 (second compound 10 µM): > 10000 nM
- viability, T/C [3]: 90.7%
- viability, T/C [4]: 97.2%
- viability, T/C [5]: 95.1%
- viability, T/C [6]: 88.2%
- viability, T/C [37]: 89.4%
- viability, T/C [38]: 80.4%
- viability, T/C [9]: 95%
- viability, T/C [10]: 94.5%
- viability, T/C [11]: 85.7%
- viability, T/C [12]: 96.7%
- viability, T/C [39]: 84.1%
- viability, T/C [40]: 77.6%
- viability, T/C [15]: 85.4%
- viability, T/C [16]: 94.5%
- viability, T/C [17]: 100%
- viability, T/C [18]: 87.8%
- viability, T/C [41]: 86.2%
- viability, T/C [42]: 75.8%
- viability, T/C [21]: 101%
- viability, T/C [22]: 90.6%
- viability, T/C [23]: 84.6%
- viability, T/C [24]: 99%
- viability, T/C [43]: 88.7%
- viability, T/C [44]: 84%
- viability, T/C [27]: 98%
- viability, T/C [28]: 92%
- viability, T/C [29]: 84.7%
- viability, T/C [30]: 82%
- viability, T/C [45]: 88.1%
- viability, T/C [46]: 80.8%
- viability, T/C [33]: 102%
- viability, T/C [34]: 94.3%
- viability, T/C [35]: 87.4%
- viability, T/C [36]: 94.1%
- viability, T/C [47]: 95.6%
- viability, T/C [48]: 75.6%
